Measured values taken from patent EP4647433A1, “SHP2 INHIBITOR AND USES THEREOF” (Kanaph Therapeutics Inc., priority 2023, dated 2024).

Assays:
H358 cells = assay: Cell viability (3D spheroid, 3D CellTiter-Glo); format: cell-based; conditions: Homo sapiens, NCI-H358, 120 h; H358 spheroids, 5 days treatment
Outline: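 H358 human NSCLC cells (4 x 10^3/well) grown 72 h in RPMI-1640 with 10% FBS to form spheroids, then treated with serially diluted compounds (1.5 nM–10 µM) for 5 days. Viability read by 3D CellTiter-Glo luminescence after 25 min at room temperature; IC50 from concentration–response.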

in vivo = conditions: mouse, 20 mg/kg
Experimental: (§1) Nine male CD-1 mice (ICR mouse) aged 6 to 9 weeks were treated with the compounds according to the Examples at a concentration of 20 mg/kg. 0.025 mL of blood and brain tissue were collected at 1 hour, 8 hours, and 24 hours post-treatment, respectively. The collected blood was placed in an EDTA-K2 tube, centrifuged at 4°C at 3,200 x g for 10 minutes, and the supernatant plasma was collected. The brain tissue samples were collected immediately after euthanizing the CD-1 mice after blood collection and performing cardiac perfusion with cold saline. After collection, the brain tissues were washed with cold saline, wiped and dried, weighed, and homogenized using a homogenization buffer (15 mM PBS (pH 7.4): MeOH = 2:1) at a ratio of 1:3 (1 g of tissue to 3 mL of buffer, dilution ratio 4). Plasma and homogenized brain tissue samples were each transferred to a polypropylene microcentrifuge tube and stored at -60°C or lower. The concentration of compounds distributed in plasma and brain tissue was analyzed using LC-MS/MS, and the distribution in brain tissue compared to plasma was calculated as follows. Brain-to-plasma ratio = AUC(0-t) brain tissue /AUC(0-t) plasma [formula]
(§2) In the Brain-plasma Pharmacokinetics assay, when a brain-to-plasma ratio value was 0.05 or more and less than 0.1, + was indicated, when a brain-to-plasma ratio value was 0.1 or more and less than 0.25, ++ was indicated, and when a brain-to-plasma ratio value was more than 0.25, +++ was indicated.

phospho-ERK = phospho-ERK assay (AlphaLisa) in H358 cells; format: cell-based; conditions: Homo sapiens, NCI-H358, 1.5 hours incubation, read-out: pERK assay (IC50)
Experimental: H358 [20,000 cell/well] was contained in 40 µL of the cell culture solution (RPMI, 10% FBS, penicillin, streptomycin) and placed on a 384-well plate. After 24 hours, the serially diluted compound according to the Examples (concentration of minimum 0.13 nM, maximum 10 µM) was contained in 10 µL of the cell culture solution, put into wells containing cells, and incubated in a cell incubator for 1.5 hours. As a positive control group, the selective SHP2 inhibitor, TNO155 (Chemietek, US; concentration ranging from 0.13 nM to 10 µM) was used.
Thereafter, phospho-ERK was labeled using an AlphaLisa system from PerkinElmer according to the manufacturer's instructions, and then fluorescence (680 nm excitation wavelength, 615 nm emission wavelength) values were measured using a Varioskan equipment from Thermo. IC50 values were obtained using Graphad's Prism from the measured values depending on the concentration.
Intracellular SHP2 activity can be confirmed by measuring the degree of phosphorylation of ERK (extracellular signal regulated kinase), which represents Ras/Raf/ERK, a downstream signal pathway of SHP2. Inhibition of ERK phosphorylation by SHP2 inhibitors was confirmed through phospho-ERK analysis, which confirmed that the SHP2 inhibitors of the present disclosure have excellent activity in inhibiting ERK phosphorylation mediated by SHP2.

SHP2 = target: T1, SHP2 (Homo sapiens, UniProt Q06124); assay: Phosphatase assay (PTPase assay, DiFMUP substrate); format: biochemical; conditions: full length SHP2 100 pM activated with SHP2 activating peptide, DiFMUP 80 µM, 2 hours; read-out: PTPase assay (IC50)
T1 construct: SHP2 (full length, diluted to 100 pM final concentration in reaction buffer, BPS bioscience, US); purchased BPS bioscience, US
T1 sequence (Q06124 1-593): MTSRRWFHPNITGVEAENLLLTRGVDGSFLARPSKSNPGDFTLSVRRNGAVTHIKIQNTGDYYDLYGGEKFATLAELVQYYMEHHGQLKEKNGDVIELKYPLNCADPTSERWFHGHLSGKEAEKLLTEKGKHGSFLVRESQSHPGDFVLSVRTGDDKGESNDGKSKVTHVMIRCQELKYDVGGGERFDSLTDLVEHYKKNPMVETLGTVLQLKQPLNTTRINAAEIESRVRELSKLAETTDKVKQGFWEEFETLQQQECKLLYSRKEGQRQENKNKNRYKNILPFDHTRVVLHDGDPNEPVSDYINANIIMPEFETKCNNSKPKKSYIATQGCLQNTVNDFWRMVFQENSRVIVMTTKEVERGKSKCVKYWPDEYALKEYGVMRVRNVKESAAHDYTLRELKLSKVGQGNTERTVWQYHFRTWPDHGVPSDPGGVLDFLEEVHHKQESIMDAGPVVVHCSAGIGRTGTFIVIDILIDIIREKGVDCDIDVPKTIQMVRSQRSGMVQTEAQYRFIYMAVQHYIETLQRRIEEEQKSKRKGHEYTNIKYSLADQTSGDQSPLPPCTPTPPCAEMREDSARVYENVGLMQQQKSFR
Outline: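 Full-length SHP2 at 100 pM final was activated with SHP2 activating peptide for 30 min in HEPES buffer pH 7.2 with NaCl, KCl, EDTA, DTT and P-20, then compound (0.6 nM–10 µM) added. DiFMUP (80 µM) was reacted for 2 h in total; fluorescence read at 340/450 nm and IC50 fitted from concentration-response.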

[1] = Brain-plasma Pharmacokinetics; conditions: male, CD-1 (ICR), mouse, brain/plasma, 20 mg/kg
Experimental: as §1, §2

Row | SMILES | IC50 (H358 cells) [nM] | Kp at 24 h (in vivo) | IC50 (phospho-ERK) [nM] | IC50 (SHP2) [nM] | Kp at 24 h [1]
1 | COC(C)(C)Cn1cnc2ccc(Sc3cnc(N4CCC5(CC4)Oc4ccccc4[C@H]5N)cn3)c(Cl)c2c1=O [Example 50, (R)-6-((5-(3-amino-3H-spiro[benzofuran-2,4'-piperidin]-1'-yl)pyrazin-2-yl)thio)-5-chloro-3-(2-methoxy-2-methylpropyl)quinazolin-4(3H)-one] | < 10 | > 0.25 | – | – | –
2 | COC(C)(C)Cn1cnc2ccc(Sc3ncc(N4CCC5(CC4)CO[C@@H](C)[C@H]5N)nc3N)c(Cl)c2c1=O [Example 37, 6-((3-amino-5-((3S,4S)-4-amino-3-methyl-2-oxa-8-azaspiro[4.5]decan-8-yl)pyrazin-2-yl)thio)-5-chloro-3-(2-methoxy-2-methylpropyl)quinazolin-4(3H)-one] | 10 to 50 | – | 45 to 1500 | 3 to 100 | 0.05 to 0.1
3 | COC(C)(C)Cn1cnc2ccc(Sc3ncc(N4CCC5(CC4)Cc4ccccc4[C@H]5N)nc3N)c(Cl)c2c1=O [Example 36, (S)-6-((3-amino-5-(1-amino-1,3-dihydrospiro[indene-2,4'-piperidin]-1'-yl)pyrazin-2-yl)thio)-5-chloro-3-(2-methoxy-2-methylpropyl)quinazolin-4(3H)-one] | < 10 | – | < 45 | < 3 | 0.05 to 0.1
4 | CC(C)n1ccc2ccc(Sc3ncc(N4CCC5(CC4)Cc4ccccc4[C@H]5N)nc3N)c(Cl)c2c1=O [Example 48, (S)-7-((3-amino-5-(1-amino-1,3-dihydrospiro[indene-2,4'-piperidin]-1'-yl)pyrazin-2-yl)thio)-8-chloro-2-isopropylisoquinolin-1(2H)-one] | < 10 | – | 45 to 1500 | < 3 | 0.1 to 0.25
